≈ marks a conversion by molar mass, not a printed value. Where “and” joins values, the source holds several entries; their conditions need not be identical. Equal entries are not always repeated. Where two headings read alike, the source gives them in different places.
Columns and labels:
Plasma stability - Human = type: in vitro ADME
Protocol: (§1) Selected compounds of the invention were evaluated for physico-chemical properties, including solubility, microsomal stability, protein binding and plasma stability (Table 2).
(§2) Selected compounds of the invention were evaluated for physico-chemical properties, including solubility, microsomal stability, protein binding and plasma stability (Table 3).

[1] = Solubility in PBS with 1% DMSO; type: physicochemical
Protocol: as §1, §2

[2] = Microsomal stability - Human; type: in vitro ADME; settings: for Microsomal stability No NADPH: non-enzymatic microsomal mechanisms only; for Microsomal stability Average: enzymatic and non-enzymatic microsomal mechanisms; as to all read-outs here: time not given here
Protocol: as §1, §2

Protein binding - Human = type: in vitro ADME
Protocol: as §1, §2

[3] = aqueous buffer, kinetic from dmso stock, read-out: Solubility Average
[4] = aqueous buffer, kinetic from dmso stock, read-out: Solubility Rep1
[5] = aqueous buffer, kinetic from dmso stock, read-out: Solubility Rep2
[6] = aqueous buffer, kinetic from dmso stock, read-out: Solubility Rep3
For Plasma stability Average in this document: time not given here.

| SMILES | Plasma stability Average (Plasma stability - Human) | solubility [1, 3] [µM] | solubility [1, 5] [µM] | solubility [1, 6] [µM] | solubility ([1]; read-out: Solubility Average) [µM] | solubility ([1]; read-out: Solubility Rep2) [µM] | solubility ([1]; read-out: Solubility Rep3) [µM] | solubility [1, 4] [µM] | Microsomal stability Rep1 [2] [% remaining] | Microsomal stability Rep2 [2] [% remaining] | Microsomal stability No NADPH [2] [% remaining] | Microsomal stability Average [2] [% remaining] | Protein binding Average (Protein binding - Human) [% bound] | Protein binding Rep1 (Protein binding - Human) [% bound] | Protein binding Rep2 (Protein binding - Human) [% bound] |
| --- | --- | --- | --- | --- | --- | --- | --- | --- | --- | --- | --- | --- | --- | --- | --- |
| CC(=O)Nc1ccc(Cc2ccc(NC(C)=O)cc2)cc1 [BRD-K44777625-001-01-9] | 100.6 % remaining | 40 (≈ 11.3 µg/mL) | 39 (≈ 11 µg/mL) | 36 (≈ 10.2 µg/mL) |  |  |  | 45 (≈ 12.7 µg/mL) | 71 | 66.7 | 63 | 68.9 | 91.0 | 91.0 | 91.0 |
| CCCCOc1cc(CC2CNC(=O)N2)ccc1OC (stereo not shown) [BRD-A07207424-001-04-1] | 105.9 % remaining | > 100 | 114 (≈ 31.7 µg/mL) | 104 (≈ 28.9 µg/mL) |  |  |  | 112 (≈ 31.2 µg/mL) | 81.5 | 85.5 | 100.3 | 83.5 | 75.6 | 76.2 | 75.0 |
| Clc1ccccc1C(c1ccccc1)(c1ccccc1)n1ccnc1 [Clotrimazole, reference compound] |  | 2.2 (≈ 0.759 µg/mL) | 1.9 (≈ 0.655 µg/mL) | 3.1 (≈ 1.07 µg/mL) | 2.6 (≈ 0.897 µg/mL) | 2.1 (≈ 0.724 µg/mL) | 2.0 (≈ 0.69 µg/mL) |  |  |  |  |  |  |  |  |
| Cc1ccc(Cl)cc1N(CC(=O)N(S)c1c(F)cccc1F)S(C)(=O)=O [BRD-K61250484-001-01-5] | 101.4 % remaining | 23 (≈ 9.68 µg/mL) | 22 (≈ 9.26 µg/mL) | 26 (≈ 10.9 µg/mL) |  |  |  | 23 (≈ 9.68 µg/mL) | 4.2 | 4.5 | 110.6 | 4.4 | 91.2 | 90.9 | 91.6 |

Now from value to molecule, other results behind:

| Plasma stability Average (Plasma stability - Human) | solubility [1, 3] [µM] | solubility [1, 5] [µM] | solubility [1, 6] [µM] | solubility ([1]; read-out: Solubility Average) [µM] | solubility ([1]; read-out: Solubility Rep2) [µM] | solubility ([1]; read-out: Solubility Rep3) [µM] | SMILES | solubility [1, 4] [µM] | Microsomal stability Rep1 [2] [% remaining] | Microsomal stability Rep2 [2] [% remaining] | Microsomal stability No NADPH [2] [% remaining] | Microsomal stability Average [2] [% remaining] | Protein binding Average (Protein binding - Human) [% bound] | Protein binding Rep1 (Protein binding - Human) [% bound] | Protein binding Rep2 (Protein binding - Human) [% bound] |
| --- | --- | --- | --- | --- | --- | --- | --- | --- | --- | --- | --- | --- | --- | --- | --- |
| 0.5 % remaining and 0.4 % remaining |  |  |  |  |  |  | CC1CC(OC(=O)C(O)c2ccccc2)CC(C)(C)N1C (stereo not shown) [Eucatropine, reference compound] |  |  |  |  |  |  |  |  |
| 63.9 % remaining | 20 (≈ 7.08 µg/mL) | 16 (≈ 5.66 µg/mL) | 21 (≈ 7.43 µg/mL) |  |  |  | CCn1cc(NC(=S)Nc2cc(Cl)ccc2OC)c(C(N)=O)n1 [BRD-K94248251] | 23 (≈ 8.14 µg/mL) | 41.7 | 39.4 | 123.1 | 40.6 | 95.8 | 95.7 | 95.9 |

Reference: patent publication US10081609B2, “Compounds for inducing proliferation and differentiation of cells, and methods of use thereof” (The Broad Institute, Inc., priority 2013, dated 2018)
